Measured values from ChEMBL document CHEMBL3243925, “Disteroidyl ethers. 1. Synthesis and oral long-lasting uterotrophic activity of 1,3,5(10)-estratrien-17-yl enol ethers of 3-keto steroids” (1977).
Activity calls are given as the source filed them. The rule behind the calls is not given here.

How the values were obtained:
Rattus norvegicus [1] = assay: Uterotrophic activity in spayed Wistar rat assessed as autopsies by measuring uterus weight at 0.1 umol, po after 1 week (reference value: 15.1 +/- 0.51 mg); assay type: functional
Rattus norvegicus [2] = assay: Uterotrophic activity in spayed Wistar rat assessed as autopsies by measuring uterus weight at 0.1 umol, po after 2 weeks (reference value: 15.9 +/- 0.50 mg); assay type: functional

Structure (SMILES)	Activity (Rattus norvegicus [1])	Activity (Rattus norvegicus [2])
C#C[C@]1(OC(=O)CCCCCC)CC[C@H]2[C@@H]3CC=C4C=C(O[C@H]5CC[C@H]6[C@@H]7CCc8cc(OC9CCCC9)ccc8[C@H]7CC[C@]56C)CC[C@@H]4[C@H]3CC[C@@]21C	19.8 mg	15.2 mg
CCC(=O)O[C@H]1CC[C@H]2[C@@H]3CC[C@H]4CC(O[C@H]5CC[C@H]6[C@@H]7CCc8cc(OC(=O)c9ccccc9)ccc8[C@H]7CC[C@]56C)CC[C@]4(C)[C@H]3CC[C@]12C (some centres not stated)	inactive	inactive
C[C@]12CC[C@@H]3c4ccc(OC(=O)c5ccccc5)cc4CC[C@H]3[C@@H]1CC[C@@H]2OC1=CC2=CC[C@@H]3[C@H](CC[C@]4(C)C(=O)CC[C@@H]34)[C@H]2CC1	59.8 mg	43.7 mg
C#C[C@]1(OC(C)=O)CC[C@H]2[C@@H]3CC=C4C=C(O[C@H]5CC[C@H]6[C@@H]7CCc8cc(OC(C)=O)ccc8[C@H]7CC[C@]56C)CC[C@@H]4[C@H]3CC[C@@]21C	36.6 mg	25.4 mg
CC(=O)O[C@H]1CC[C@H]2[C@@H]3CC[C@H]4C=C(O[C@H]5CC[C@H]6[C@@H]7CCc8cc(OC(=O)c9ccccc9)ccc8[C@H]7CC[C@]56C)C=C[C@]4(C)[C@H]3CC[C@]12C	21.3 mg	20.1 mg
C[C@]12CCC(O[C@H]3CC[C@H]4[C@@H]5CCc6cc(O)ccc6[C@H]5CC[C@]34C)C[C@H]1CC[C@@H]1[C@@H]2CC[C@]2(C)[C@@H](O)CC[C@@H]12 (some centres not stated)	inactive	inactive
C#C[C@]1(OC(C)=O)CC[C@H]2[C@@H]3CC=C4C=C(O[C@H]5CC[C@H]6[C@@H]7CCc8cc(O)ccc8[C@H]7CC[C@]56C)CC[C@@H]4[C@H]3CC[C@@]21C	38.1 mg	26.7 mg
C[C@]12CC[C@H]3[C@@H](CC=C4C=C(O[C@H]5CC[C@H]6[C@@H]7CCc8cc(OC9CCCC9)ccc8[C@H]7CC[C@]56C)CC[C@@H]43)[C@@H]1CC[C@@H]2OC(=O)CCC(=O)O	28.9 mg	31.8 mg
C#C[C@]1(OC(C)=O)CC[C@H]2[C@@H]3CC=C4C=C(O[C@H]5CC[C@H]6[C@@H]7CC(=O)c8cc(OC(=O)c9ccccc9)ccc8[C@H]7CC[C@]56C)CC[C@@H]4[C@H]3CC[C@@]21C	inactive	inactive
C[C@]12CCC(O[C@H]3CC[C@H]4[C@@H]5CCc6cc(O)ccc6[C@H]5CC[C@]34C)C[C@@H]1CC[C@@H]1[C@@H]2CC[C@]2(C)[C@@H](O)CC[C@@H]12 (some centres not stated)	inactive	inactive
C[C@]12CC[C@@H]3c4ccc(OC(=O)CCC(=O)O)cc4CC[C@H]3[C@@H]1CC[C@@H]2OC1=CC2=CC[C@@H]3[C@H](CC[C@]4(C)C(=O)CC[C@@H]34)[C@H]2CC1	60.7 mg	36.8 mg
C[C@]12CC[C@@H]3c4ccc(O)cc4CC[C@H]3[C@@H]1CC[C@@H]2OC1=CC2=CC[C@@H]3[C@H](CC[C@]4(C)[C@@H](O)CC[C@@H]34)[C@H]2CC1	59.9 mg	41.6 mg
C[C@]12CC[C@@H]3c4ccc(O)cc4CC[C@H]3[C@@H]1CC[C@@H]2OC1=CC2=CC[C@H]3[C@@H]4CC[C@H](O)[C@@]4(C)CC[C@@H]3[C@@]2(C)CC1	50.2 mg	36.8 mg
C#C[C@]1(OC(C)=O)CC[C@H]2[C@@H]3CC=C4C=C(O[C@H]5CC[C@H]6[C@@H]7CCc8cc(OC9CCCC9)ccc8[C@H]7CC[C@]56C)CC[C@@H]4[C@H]3CC[C@@]21C	17.9 mg	
